According to US20090311246A1, “Method of Enhancing Remyelination in Demyelinating Diseases of the Central Nervous System” (priority 2008, published 2009):
Entries after “also recorded” stand apart in the source; their conditions may differ.

How the values were obtained:
B6 mice with EAE = test: Clinical scores of E2 137-151 peptide-treated mice with MOG 35-55 induced EAE; format: in vivo; conditions: for Disease severity, treatment from D12 post-EAE induction, compared with untreated EAE mice: 0.5 mg/injection sc in IFA on D12, 17, 22, peak D19
Protocol: FIG. 6 Comparison of Average Clinical Scores (±SEM) of E2 137-151 peptide-treated, and untreated B6 mice with EAE, on different days post treatment. Data shown is the average of three experiments, total numbers of mice were 21 EAE and 22 treated EAE mice. All mice were immunized subcutaneously with myelin oligodendrocyte glycoprotein (MOG) peptide 35-55 in CFA, on D0. Treated EAE mice received subcutaneous injection of E2-137 peptide (0.5 mg/injection or 25 mg/kg, based on the average weight of 20 g/mouse) in IFA, on day 12 post EAE induction. Additional inoculations of E2-137 peptide/IFA were performed twice more with 5-day intervals. Following the injection, animals were observed daily for clinical manifestations of disease and were scored on a scale of 0-VI, as above. Clinical scores of sacrificed and dead animals have been considered in average calculation till the end of the experiments on day 39.
Method—To induce EAE, fourteen 7-8 wk old B6 mice (Jackson Laboratories, Bar Harbor, Mass.) were each inoculated, subcutaneously, with […] MOG 35-55 in Complete Freund's Adjuvant (CFA) or CFA only (as control), followed by two injections of 100 ng of pertusis toxin, 48 hours apart (9, 73). Eight mice in EAE-induced group were immunized subcutaneously with E2-137-151 (0.5 mg/injection or 25 mg/kg, based on the average weight of 20 g/mouse) in IFA, one day after MOG inoculation. One additional inoculation of E2 137-151/IFA was performed 5 days later. Animals were observed daily for clinical manifestations of disease and were scored on a scale of 0-VI. 0=no abnormality; I=mild hind limb weakness (some difficulty righting themselves when turned on their back); II=moderate hind limb weakness, sometimes associated with floppy tail; III=weakness of hind limbs accompanied by some forelimb weakness, sometimes more marked on one limb or one side, but not complete paralysis; IV=hind limb paresis accompanied by mild forelimb weakness; V=paralysis of hind limbs, associated with moderate forelimb weakness; and VI-quadriplegia, moribund.
Result—Mice were immunized with MOG 35-55 in CFA, to induce EAE as described above. In the first two experiments, mice were divided into two groups, untreated, and treated after EAE induction. The treated EAE group received E2-137-151 peptide in IFA, subcutaneously on D5 post-EAE induction, before the signs of clinical disease were apparent.
Next, three experiments were performed with a total number of 21 RAE and 22 late treated EAE mice. […] EAE mice were further treated with E2-137-151 peptide on days 17 and 22 post-EAE induction. […] Peak of the disease in both RAE and D12 treated EAR mice were on D19 pi.

[1] = system: SFV-infected TCR γδ-KO and WT mice; test: Clinical scores of SFV-infected, E2 137-151 immunized TCR γδ-KO and WT mice; format: in vivo; conditions: 0.5 mg/injection (25 mg/kg) sc in IFA, scale 0-VI
Protocol: FIG. 5 Comparison of Clinical Scores (±SEM) of SFV-infected E2 137-151 peptide-immunized, and non-immunized TCR γδ-KO and WT mice, on different days post infection. Data shown is the average of two experiments with a total of 15 WT, 15 KO mice, and 10 immunized KO mice (only 5-10 KO mice could be obtained at each time point). SFV-infected KO mice were immunized subcutaneously with E2 137-151 (0.5 mg/injection or 25 mg/kg, based on the average weight of 20 g/mouse) in IFA, one day after SFV-infection. Additional inoculations of E2 137-151/IFA were performed on days 5, 15, and 20. Mice were sacrificed on days 7, 15, 21, and 35 pi. Clinical scores of sacrificed and dead animals have been considered in average calculation until the end of experiments on day 35. […] Data from E2-137-immunized WT mice is not shown (p=NS).
Method—Five-week old C57B16 (B6) WT and KO mice (Jackson Laboratories, Bar Harbor, Mass.) were infected with SFV, and KO mice were immunized subcutaneously with E2-137-151 (0.5 mg/injection or 25 mg/kg, based on the average weight of 20 g/mouse) in IFA, one day after SFV-infection. Additional inoculations of E2 137-151/IFA were performed on days 5 and 15 for KO mice only. Animals were observed daily for clinical manifestations of disease and were scored on a scale of 0-VI. 0=no abnormality; I-mild hind limb weakness (some difficulty righting themselves when turned on their back); II=moderate hind limb weakness, sometimes associated with floppy tail; III=weakness of hind limbs accompanied by some forelimb weakness, sometimes more marked on one limb or one side, but not complete paralysis; IV=hind limb paresis accompanied by mild forelimb weakness; V=paralysis of hind limbs, associated with moderate forelimb weakness; and VI=quadriplegia, moribund.

## CC[C@H](C)[C@H](NC(=O)[C@H](CCC(=O)O)NC(=O)[C@H](CCCCN)NC(=O)CNC(=O)[C@H](Cc1ccc(O)cc1)NC(=O)[C@H](Cc1c[nH]cn1)NC(=O)[C@@H]1CCCN1C(=O)[C@H](CCCNC(=N)N)NC(=O)[C@@H](NC(=O)[C@@H](NC(=O)[C@H](Cc1ccccc1)NC(=O)[C@H](CCCCN)NC(=O)[C@H](CCC(=O)O)NC(=O)[C@H](CCCNC(=N)N)NC(=O)CN)[C@@H](C)O)[C@@H](C)CC)C(=O)O [E2 137-151]
B6 mice with EAE
  Disease severity, treatment from D12 post-EAE induction, compared with untreated EAE mice: significantly less severe disease on peak day
B6 mice with EAE; listed as E2 137-151 peptide
  Disease severity, treatment from D12 post-EAE induction, compared with untreated EAE mice: significantly suppressed the clinical disease; also recorded: improved clinical EAE
B6 mice with EAE; listed as E2-137 peptide
  Disease severity, treatment from D12 post-EAE induction, compared with untreated EAE mice: Average disease severity in EAE mice was significantly higher than treated EAE mice
B6 mice with EAE; 19 treated EAE mice (of 22), scale 0-VI
  Clinical disease score at the peak of the disease on D19: < 1.5
B6 mice with EAE; E2-137-151 peptide in IFA sc before clinical signs
  Clinical signs of EAE, treatment on D5 post-EAE induction: absence of clinical signs of EAE
[1]; listed as E2 137-151 peptide, 25 mg/kg
  Average clinical score / severity of disease, immunized KO compared with non-immunized KO mice: significantly suppressed
[1]; listed as E2-137, 25 mg/kg
  Average clinical score / severity of disease, immunized KO compared with non-immunized KO mice: nonimmunized <E2-137 immunized KO mice
[1]; listed as E2-137-151, 25 mg/kg
  Average clinical score / severity of disease, immunized KO compared with non-immunized KO mice: decreased significantly
